Laboratory results reported in publication PMC6429159, “Evolution and Biological Evaluation of Matrinic Derivatives with Amantadine Fragments As New Anti-Influenza Virus Agents” (Molecules, 2019).
Where a name gives a salt, the structure may show the parent alone. Read-outs that look alike come from different tables or passages of the source.

Key:
[1] = test system: influenza virus A/hanfang/359/95 (H3N2); assay: organism not typed; assay type: cell-based; details: 50% virus-inhibitory concentration after 40 hr at 37 °C, MDCK cells; – = no anti-H3N2 activity at the maximum non-toxic concentration
[2] = test system: influenza virus A/Fort Monmouth/1/1947 (H1N1); assay: organism not typed; assay type: cell-based; details: MDCK cells, CPE
MDCK cells [3] = details: lead 1, value of previous study; cited from earlier work
MDCK cells [4] = assay: Cytotoxicity assay; assay type: cell-based; details: 50% cytotoxic concentration, 48 hr
Description: A three-fold dilution compound was added to cell monolayer, and the cells continued to be cultivated for 48 hr, and then the CPE was recorded. The TC50 value of each compound was calculated by the methods of Reed & Muench.

[5] = Stability assay in whole blood; assay type: in vitro ADME, SD rats; details: 37 °C; for stability in whole blood (in words): in vitro
Description: The results hinted that 9f owned a good PK stability profile in blood, and it was chosen for the next investigation.
The fresh bloods were collected on the day of experiment from SD rats, and pre-warmed in a water bath at 37 °C. A concentration of 10 mM tested compound or enalapril stock solutions were prepared in DMSO, and then diluted with 45% MeOH/H2O to achieve […] dosing solutions. […] At the end of incubation, for each sample, […] water and […] of stop solution (200 ng·mL^−1 tolbutamide plus 20 ng·mL^−1 buspirone in acetonitrile) were immediately added to precipitate the protein, and centrifuged at 4000 rpm for 20 min. An aliquot of supernatant ([…]) was then extracted, mixed with […] H2O, and then shaken at 800 rpm for about 10 min before being submitted for a liquid chromatography-tandem mass […] (LC-MS/MS) analysis. The experiment was repeated twice.
Figure 3 The stability assessments of key compounds 9f and 9j in whole blood. […]

Kunming mice = details: for weight loss and behaviour: oral single dose 125, 250, 500 mg·kg^–1, seven days, compared to control; for median lethal dose (LD50): oral single dose, Kunming mice, monitored seven days
Description: The acute toxicity tests of the two key compounds 9f and 9j were performed in Kunming mice. Each compound was given orally in a single-dosing experiment at 125, 250, and 500 mg·kg^–1, respectively. Then, the mice were closely monitored for seven days.
Female Kunming mice with weights of 20.0 (±1.0 g) were fed with regular rodent chow, and housed in an air-conditioned room. The mice were randomly divided into different groups with 10 mice each. Each compound was given orally in a single-dosing experiment at 125, 250, or 500 mg·kg^−1, respectively. The mice were closely monitored for seven days. Body weight, as well as survival, was monitored.

IAV M2 = assay type: cell-based, Influenza A virus
[6] = test system: H3N2 virus non-structural protein 1 (NS1); assay: Anti-H3N2 activity at the protein level, NS1 Western blot; assay type: cell-based, Influenza A virus; details: 40 μM, MDCK cells, MOI 0.003, 24 hr

NC12CC3CC(CC(C3)C1)C2 [AH, amantadine hydrochloride, reference compound]
IC50 [1]: 3.25 ± 0.5 µM | IC50 [2]: 2.73 µM

CCCCC1C2CCCN3CCCC(CN1Cc1ccc(C(=O)O)cc1)C23 (centres unmarked) [Compound 1, 12N-p-carboxybenzyl matrinic butane]
TC50 (MDCK cells [3]): >540.5 µM

O=C(OCCCC[C@@H]1[C@H]2CCCN3CCC[C@@H](CN1S(=O)(=O)c1ccc(C(F)(F)F)cc1)[C@@H]23)C12CC3CC(CC(Br)(C3)C1)C2 [Compound 9c, 12N-p-Trifluoromethlybenzenesulfonylmatrinicbutyl-3’-bromoadamantane-1’-carboxylate hydrochloride]
IC50 [1]: 8.2 ± 2.07 µM | IC50 [2]: 27.5 ± 0.1 µM | TC50 (MDCK cells [4]): 73.6 ± 4.3 µM

O=C(OCCCC[C@@H]1[C@H]2CCCN3CCC[C@@H](CN1S(=O)(=O)c1cccc(C(F)(F)F)c1)[C@@H]23)C12CC3CC(CC(C3)C1)C2 [Compound 9d, 12N-m-Trifluoromethlybenzenesulfonyl matrinic butyl adamantine-1’-carboxylate hydrochloride]
IC50 [1]: 5.9 ± 0.9 µM | IC50 [2]: 22.4 ± 1.3 µM | TC50 (MDCK cells [4]): 54.9 ± 3.5 µM

O=C(OCCCC[C@@H]1[C@H]2CCCN3CCC[C@@H](CN1S(=O)(=O)c1cccc(C(F)(F)F)c1)[C@@H]23)C12CC3CC(CC(Br)(C3)C1)C2 [Compound 9f, 12N-m-Trifluoromethlybenzenesulfonylmatrinicbutyl-3’-bromoadamantane-1’-carboxylate hydrochloride]
remaining rate of protype in whole blood ([5]; 60 min): 100% | remaining rate of protype in whole blood ([5]; 120 min): 97.9% | stability in whole blood (in words) [5]: high stability profile | weight loss and behaviour (Kunming mice): neither significant weight loss nor behavioral abnormality | median lethal dose (LD50) (Kunming mice): higher than 500 mg·kg^–1 | M2 level (IAV M2): significantly reduce | H3N2 virus NS1 level [6]: significantly reduce | IC50 [1]: 7.2 ± 1.1 µM | IC50 [2]: 23.4 ± 1.5 µM | TC50 (MDCK cells [4]): 75.7 ± 14.2 µM

O=C(CC1CC2CCC1C2)OCCCC[C@@H]1[C@H]2CCCN3CCC[C@@H](CN1S(=O)(=O)c1cccc(C(F)(F)F)c1)[C@@H]23 (some centres unmarked) [Compound 9j, 12N-m-Trifluoromethlybenzenesulfonyl matrinic butyl-2’-norbornane acetate hydrochloride]
remaining rate of protype in whole blood ([5]; 30 min): 47.7% | remaining rate of protype in whole blood ([5]; 120 min): 1.3% | stability in whole blood (in words) [5]: poor stability | weight loss and behaviour (Kunming mice): neither significant weight loss nor behavioral abnormality | median lethal dose (LD50) (Kunming mice): higher than 500 mg·kg^–1 | H3N2 virus NS1 level [6]: significantly reduce | IC50 [1]: 10.2 ± 1.8 µM | IC50 [2]: 22.6 ± 1.3 µM | TC50 (MDCK cells [4]): 110.3 ± 18.5 µM

CCOC(=O)[C@H](CCc1ccccc1)N[C@@H](C)C(=O)N1CCC[C@H]1C(=O)O [enalapril, (S)-N-[1-(ethoxycarbonyl)-3-phenylpropyl]-Ala-Pro maleate, reference compound]
stability in whole blood (in words) [5]: hydrolyzed quickly
